Each molecule was assayed against T1, human PAH with the R408W mutation (A375 R408W cells) (Homo sapiens, UniProt P00439, R408W) (assay: Cell Based Phenylalanine Flux Assay). Conditions: A375 R408W cells; 24 hrs with compound, then 20 μM sepiapterin and 800 μM 13C9,15N-Phenylalanine for 4 hours; 13C-Tyrosine by LC-MS; average where tested multiple times.
T1 construct: expressed in transfected cells
T1 sequence (P00439 1-452 R408W): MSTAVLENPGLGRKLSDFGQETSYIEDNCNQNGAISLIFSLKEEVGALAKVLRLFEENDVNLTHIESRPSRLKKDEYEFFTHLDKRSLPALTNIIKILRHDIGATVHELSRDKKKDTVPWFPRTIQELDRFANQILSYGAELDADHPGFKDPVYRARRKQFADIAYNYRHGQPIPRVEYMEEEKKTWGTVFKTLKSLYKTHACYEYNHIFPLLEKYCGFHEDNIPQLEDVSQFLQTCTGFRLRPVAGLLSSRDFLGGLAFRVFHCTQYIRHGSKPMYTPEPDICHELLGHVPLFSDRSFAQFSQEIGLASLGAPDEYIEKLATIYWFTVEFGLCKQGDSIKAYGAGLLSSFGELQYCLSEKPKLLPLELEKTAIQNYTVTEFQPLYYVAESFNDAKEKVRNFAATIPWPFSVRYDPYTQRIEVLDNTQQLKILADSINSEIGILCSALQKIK
Description: Cells expressing R408W PAH were made by transducing A375 cells with lentivirus encoding human PAH with the R408W mutation in pLVX-Puro, then selecting with puromycin until stable cell lines were generated. A375 R408W cells were seeded into 96 well plates in DMEM+10% FBS at a density of 40,000 cells/well one hour prior to compound addition. Compounds were resuspended in DMSO, and 2-fold serial dilutions were performed to generate a 10-point dose curve. Compounds were added to plated cells in a total volume of 100 μl, and a final DMSO concentration of 0.5%. Each compound was tested in duplicate. Following compound addition, cells were placed in a 5% CO2, 37° C. tissue culture incubator for 24 hrs. After the incubation period, 20 μM sepiapterin and 800 μM 13C9,15N-Phenylalanine were added. After 4 hours, cell media was removed. An aliquot of 10 μl of cell media was combined with 200 μl of extraction buffer (80% acetonitrile/20% H2O) for each well. Determination of ^13C-Tyrosine concentration was assessed by liquid chromatography mass spectrometry.
Specific compounds disclosed herein were tested in the foregoing assay and they were determined to have an AC50 according to the following scores: (A) less than or equal to 0.500 μM, (B) greater than 0.500 and less than […], (C) greater than or equal to 1.000 and less than 5.000 μM, (D) greater than or equal to 5.000 μM, (E) no fit, and (NT) not tested, as shown below. Where a compound was tested multiple times, the average value of the tests is reported.

`O=C(c1nnc(-c2ccccn2)o1)N1CCc2[nH]cnc2[C@@H]1c1nc2c(F)cc(F)cc2o1` [Example 524, (R)-(4-(4,6-difluorobenzo[d]oxazol-2-yl)-6,7-dihydro-1H-imidazo[4,5-c]pyridin-5(4H)-yl)(5-(pyridin-2-yl)-1,3,4-oxadiazol-2-yl)methanone] and `O=C(c1ccnn1C(F)(F)F)N1CCc2[nH]cnc2[C@@H]1c1nc2ccc(F)cc2o1` [Example 288, (R)-(4-(6-fluorobenzo[d]oxazol-2-yl)-6,7-dihydro-1H-imidazo[4,5-c]pyridin-5(4H)-yl)(1-(trifluoromethyl)-1H-pyrazol-5-yl)methanone] fall in the same range of AC50: 1000 to 5000 nM for the first, 1000 to 5000 nM for the second.

`COc1cccc2oc([C@H]3c4nc[nH]c4CCN3C(=O)c3nc(C(F)F)nn3C)nc12` [Example 602, (R)-(3-(difluoromethyl)-1-methyl-1H-1,2,4-triazol-5-yl)(4-(4-methoxybenzo[d]oxazol-2-yl)-6,7-dihydro-1H-imidazo[4,5-c]pyridin-5(4H)-yl)methanone] and `CC(C)n1ncnc1C(=O)N1CCc2[nH]cnc2[C@H]1c1nc2ccccc2o1` [Example 705, (S)-(4-(benzo[d]oxazol-2-yl)-6,7-dihydro-1H-imidazo[4,5-c]pyridin-5(4H)-yl)(1-isopropyl-1H-1,2,4-triazol-5-yl)methanone] cannot be ordered by AC50: 500 to 1000 nM for the first, at most 500 nM for the second.

`Cc1cccc2nc([C@@H]3c4nc[nH]c4CCN3C(=O)c3nnc(-c4ccccn4)o3)oc12` [Example 567, (S)-(4-(7-methylbenzo[d]oxazol-2-yl)-6,7-dihydro-1H-imidazo[4,5-c]pyridin-5(4H)-yl)(5-(pyridin-2-yl)-1,3,4-oxadiazol-2-yl)methanone] and `O=C(c1ocnc1CC(F)F)N1CCc2[nH]cnc2[C@H]1c1nc2ccccc2o1` [Example 873, (S)-(4-(benzo[d]oxazol-2-yl)-6,7-dihydro-1H-imidazo[4,5-c]pyridin-5(4H)-yl)(4-(2,2-difluoroethyl)oxazol-5-yl)methanone] cannot be ordered by AC50: at most 500 nM for the first, at most 500 nM for the second.

First: CC(F)(F)c1ncc(C(=O)N2CCc3[nH]cnc3[C@H]2c2nc3cc(F)ccc3o2)s1 [Example 35, (S)-(2-(1,1-difluoroethyl)thiazol-5-yl)(4-(5-fluorobenzo[d]oxazol-2-yl)-6,7-dihydro-1H-imidazo[4,5-c]pyridin-5(4H)-yl)methanone]
Second: COc1ccc(-c2nnc(C(=O)N3CCc4[nH]cnc4[C@@H]3c3nc4cc(C)ccc4o3)o2)nc1 [Example 678, (R)-(5-(5-methoxypyridin-2-yl)-1,3,4-oxadiazol-2-yl)(4-(5-methylbenzo[d]oxazol-2-yl)-6,7-dihydro-1H-imidazo[4,5-c]pyridin-5(4H)-yl)methanone]
The AC50 of the first is lower: 500 to 1000 nM for the first, 1000 to 5000 nM for the second.

First: Cc1ccc2oc([C@H]3c4nc[nH]c4CCN3C(=O)c3oc(C(C)(C)O)nc3C(F)F)nc2c1 [Example 312, (R)-(4-(difluoromethyl)-2-(2-hydroxypropan-2-yl)oxazol-5-yl)(4-(5-methylbenzo[d]oxazol-2-yl)-6,7-dihydro-1H-imidazo[4,5-c]pyridin-5(4H)-yl)methanone]
Second: O=C(c1cnn2cc(F)c(Cl)cc12)N1CCc2[nH]cnc2[C@@H]1c1nc2cc(F)ccc2o1 [Example 220, (R)-(5-chloro-6-fluoropyrazolo[1,5-a]pyridin-3-yl)(4-(5-fluorobenzo[d]oxazol-2-yl)-6,7-dihydro-1H-imidazo[4,5-c]pyridin-5(4H)-yl)methanone]
The AC50 of the first is lower: 500 to 1000 nM for the first, at least 5000 nM for the second.

`O=C(c1ccnn1C(F)F)N1CCc2[nH]cnc2[C@H]1c1nc2c(F)cc(F)cc2o1` [Example 489, (S)-(4-(4,6-difluorobenzo[d]oxazol-2-yl)-6,7-dihydro-1H-imidazo[4,5-c]pyridin-5(4H)-yl)(1-(difluoromethyl)-1H-pyrazol-5-yl)methanone] and `O=C(c1ccnn1C(F)(F)F)N1CCc2[nH]cnc2[C@@H]1c1nc2cc(F)ccc2o1` [Example 262, (R)-(4-(5-fluorobenzo[d]oxazol-2-yl)-6,7-dihydro-1H-imidazo[4,5-c]pyridin-5(4H)-yl)(1-(trifluoromethyl)-1H-pyrazol-5-yl)methanone] fall in the same range of AC50: 500 to 1000 nM for the first, 500 to 1000 nM for the second.

First: Cc1ccc2c(C(=O)N3CCc4[nH]cnc4[C@@H]3c3nc4c(F)cccc4o3)cnn2c1 [Example 538, (R)-(4-(4-fluorobenzo[d]oxazol-2-yl)-6,7-dihydro-1H-imidazo[4,5-c]pyridin-5(4H)-yl)(6-methylpyrazolo[1,5-a]pyridin-3-yl)methanone]
Second: C[C@H](O)c1nc(C(F)F)c(C(=O)N2CCc3[nH]cnc3[C@H]2c2nc3c(F)cccc3o2)o1 [Example 227, (4-(difluoromethyl)-2-((S)-1-hydroxyethyl)oxazol-5-yl)((S)-4-(4-fluorobenzo[d]oxazol-2-yl)-6,7-dihydro-1H-imidazo[4,5-c]pyridin-5(4H)-yl)methanone]
The AC50 of the first is higher: 1000 to 5000 nM for the first, at most 500 nM for the second.

First: (R)-(4-(5-fluorobenzo[d]oxazol-2-yl)-6,7-dihydro-1H-imidazo[4,5-c]pyridin-5(4H)-yl)(6-(methoxymethyl)pyrazolo[1,5-a]pyridin-3-yl)methanone [Example 30]
Second: O=C(c1oc(-c2ccncn2)nc1C(F)F)N1CCc2[nH]cnc2[C@H]1c1nc2cc(F)ccc2o1 [Example 526, (S)-(4-(difluoromethyl)-2-(pyrimidin-4-yl)oxazol-5-yl)(4-(5-fluorobenzo[d]oxazol-2-yl)-6,7-dihydro-1H-imidazo[4,5-c]pyridin-5(4H)-yl)methanone]
The AC50 of the first is higher: at least 5000 nM for the first, at most 500 nM for the second.

First: O=C(c1nnc(-c2ccccn2)o1)N1CCc2[nH]cnc2[C@H]1c1nc2ccccc2o1 [Example 583, (S)-(4-(benzo[d]oxazol-2-yl)-6,7-dihydro-1H-imidazo[4,5-c]pyridin-5(4H)-yl)(5-(pyridin-2-yl)-1,3,4-oxadiazol-2-yl)methanone]
Second: O=C(c1ocnc1C(F)F)N1CCc2[nH]cnc2[C@@H]1c1nc2ccc(F)c(F)c2o1 [Example 306, (R)-(4-(6,7-difluorobenzo[d]oxazol-2-yl)-6,7-dihydro-1H-imidazo[4,5-c]pyridin-5(4H)-yl)(4-(difluoromethyl)oxazol-5-yl)methanone]
The AC50 of the first is lower: at most 500 nM for the first, 1000 to 5000 nM for the second.

First: O=C(c1ccnn1C(F)F)N1CCc2[nH]cnc2[C@@H]1c1nc2c(F)cc(F)cc2o1 [Example 490, (R)-(4-(4,6-difluorobenzo[d]oxazol-2-yl)-6,7-dihydro-1H-imidazo[4,5-c]pyridin-5(4H)-yl)(1-(difluoromethyl)-1H-pyrazol-5-yl)methanone]
Second: O=C(c1nnc(C2CC2)o1)N1CCc2[nH]cnc2[C@@H]1c1nc2c(F)ccc(F)c2o1 [Example 856, (R)-(5-cyclopropyl-1,3,4-oxadiazol-2-yl)(4-(4,7-difluorobenzo[d]oxazol-2-yl)-6,7-dihydro-1H-imidazo[4,5-c]pyridin-5(4H)-yl)methanone]
The AC50 of the first is higher: 1000 to 5000 nM for the first, 500 to 1000 nM for the second.

Same assay, conditions: A375 cells expressing R408W PAH; 24 hrs with compound, then 20 μM sepiapterin and 800 μM 13C9,15N-Phenylalanine for 4 hours; 13C-Tyrosine by LC-MS; average where tested multiple times

`Cc1ccc2nc(C3c4nc[nH]c4CCN3C(=O)c3cnn4cc(CN(C)C)ccc34)oc2c1` (centres unmarked) and `Cc1ccc2nc(C3c4nc[nH]c4CCN3C(=O)c3cncs3)oc2c1` (centres unmarked) cannot be ordered by AC50: at least 5000 nM for the first, 1000 to 5000 nM for the second.

`O=C(c1cnn2cc(N3CCN(CC(F)(F)F)CC3)ccc12)N1CCc2[nH]cnc2C1c1nc2cc(F)ccc2o1` (centres unmarked) and `Nc1cc2c(C(=O)N3CCc4[nH]cnc4C3c3nc4cc(F)ccc4o3)cnn2cc1F` (centres unmarked) cannot be ordered by AC50: 1000 to 5000 nM for the first, at least 5000 nM for the second.

`CC1CN(C(=O)c2oc(C(C)(C)O)nc2C(F)F)C(c2nc3cc(F)ccc3o2)c2nc[nH]c21` (centres unmarked) [listing 1 of 2 here] and `CC(C)(O)c1noc(C(=O)N2CCc3[nH]cnc3C2c2nc3cc(F)ccc3o2)n1` (centres unmarked) cannot be ordered by AC50: at least 5000 nM for the first, at least 5000 nM for the second.

`Cc1ccc2oc(C3c4nc[nH]c4CCN3C(=O)c3nnc(C)o3)nc2c1` (centres unmarked) and `Cn1ccc(-c2nnc(C(=O)N3CCc4[nH]cnc4C3c3nc4cc(C(F)(F)F)ccc4o3)o2)n1` (centres unmarked) cannot be ordered by AC50: at least 5000 nM for the first, 1000 to 5000 nM for the second.

`Cc1cccc2nc(C3c4nc[nH]c4CCN3C(=O)c3ccnn3-c3ccccn3)oc12` (centres unmarked) and `Cc1cccc2nc(C3c4nc[nH]c4CCN3C(=O)c3ccnn3C(C)C)oc12` (centres unmarked) cannot be ordered by AC50: 1000 to 5000 nM for the first, at least 5000 nM for the second.

`Cc1cccc2nc(C3c4nc[nH]c4CCN3C(=O)c3nc(C(C)(C)C)nn3C)oc12` (centres unmarked) and `Cc1cccc2nc(C3c4nc[nH]c4CCN3C(=O)c3ccnn3C3CC3)oc12` (centres unmarked) fall in the same range of AC50: 1000 to 5000 nM for the first, 1000 to 5000 nM for the second.

`CC1CN(C(=O)c2oc(C(C)(C)O)nc2C(F)F)C(c2nc3cc(F)ccc3o2)c2nc[nH]c21` (centres unmarked) [listing 2 of 2 here] and `CC(C)(O)c1cc(C(=O)N2CCc3[nH]cnc3C2c2nc3ccc(F)cc3o2)on1` (centres unmarked) fall in the same range of AC50: 1000 to 5000 nM for the first, 1000 to 5000 nM for the second.

With `COc1cccc2oc(C3c4nc[nH]c4CCN3C(=O)c3cnc(C(C)(C)O)o3)nc12` (centres unmarked) the AC50 was 1000 to 5000 nM.

Reference: patent US20250171437A1 (Agios Pharmaceuticals,Inc., priority 2022, published 2025)
